Assay results: US8637484B2, “Modulation of growth hormone receptor expression and insulin-like growth factor expression” (Antisense Therapeutic Limited, priority 2003, dated 2014)

Assays:
[1] = test system: serum insulin-like growth factor-I; assay: Serum IGF-I by radioimmunoassay, 1 week pilot study in Balb/C(a) mice; type: in vivo, mouse; settings: 2 doses per day at 25 μg each
Procedure: Forty male Balb/C(a) mice weighing 9 to 10 g were placed into cages, 4 animals per cage, and allowed to assimilate into their environment with new littermates ˜1 week prior (Day −7) to the commencement of 1 week study. Mice of this age would be at their maximum growth rate. Their body weights were measured and recorded every second day during this period. When mice weighed 11 g (day −2), a blood sample was collected under anesthesia as described below, and a serum IGF-I assay was performed to determine pre-treatment values and to aid in the assigning of mice to treatment groups in order to reduce animal variability. To obtain the blood sample, the animals were anaesthetized with pentobarbital (50 mg/kg i.p.) and non-fasting blood samples collected exactly 5 minutes later from the retrobulbar plexus through heparinized capillary tubes under light ether anesthesia. The 40 animals were placed into five groups with each group having a similar weight average and similar IGF-I average concentration for the trial.
Animals (n=8/group) were designated to the following five treatment groups:
Saline, antisense, mismatch control and octreotide samples were prepared, and coded for blinding. Animals were given a subcutaneous dose of saline every second day, and mismatch control or antisense with administration on days 0, 2, 4, 6. Animals were given twice daily doses of 25 μg octreotide. Animals were housed 4 per cage, for the duration of one week. They had access to a pre-determined quantity of standard mouse food and water at all times throughout the experiment. They were housed in a quiet, temperature- and humidity-maintained environment for the entirety of the study. At day 0 and before treatment on each day or second day, the animals had their body weight and food intake measured, enabling the correct dose of agent to be administered. The animals were monitored closely for any changes in fur, skin, eye, locomotion or other changes in behavior. No problems were observed. Every second day from day −7 to day 7 body weight and food intake were measured.
On day 7, one day after the last dose of antisense, and/or after the last octreotide dose, the animals were anaesthetized with pentobarbital (50 mg/kg i.p.) and non-fasting blood samples collected exactly 5 minutes later from the retrobulbar plexus through heparinized capillary tubes under light ether anesthesia (as on day −7 and 0).
At day −2 and day 7, serum IGF-I measurement was done by radioimmunoassay. Serum IGF-I level is the most widely used measure of growth hormone biological activity in human therapy. It is used to measure the efficacy of growth hormone antagonist treatments like Trovert, which block cells' responsiveness to excess growth hormone, and dopamine agonists and octreotide somatostatin […] drugs that block growth hormone secretion from the pituitary.

[2] = test system: serum insulin-like growth factor-I; assay: as above; type: in vivo, mouse
[3] = test system: serum insulin-like growth factor-I; settings: patients with acromegaly; cited from earlier work
sIGF-1 = settings: cited from earlier work
serum IGF-I = settings: high doses, 12 week study, cited from earlier work

## octreotide
[1]
  effect on serum IGF-I levels at day 7: no effect
[2]; 25 μg twice per day
  IGF-I (ng/ml) Day 7: 114.34 ± 41.36 ng/mL
[2]; pre-treatment value of the group given 25 μg/kg twice per day
  IGF-I (ng/ml) Day −2: 199.72 ± 44.47 ng/mL
[3]
  patients in whom treatment is effective: 60-65%
sIGF-1; 5000 μg/day sc, maximally tolerated doses, 15 month study
  reduction of sIGF-1: 51%
sIGF-1; vs placebo of 42%
  ocular disease: 27%
Serum IGF-I; 11 patients
  reduction of serum IGF-I: 45%
Serum IGF-I
  reduction of glomerular filtration rate relative to placebo: 22-33%
